From patent US7118895B2, “Process for producing aglycon by using diglycosidase and flavor-improved food containing the aglycon and converting agent to be used in the process” (Amano Enzyme Inc., priority 2000, dated 2006)

Assays:
[1] = test system: Diglycosidase derived from P. multicolor; assay: Reactivity toward various isoflavone glycosides (HPLC); type: biochemical, Penicillium multicolor; parameters: glucoside / aglycon: unit not given here; conditions: 55 °C, pH 4.0
Experimental: (§1) Diglycosidase was diluted with an acetate buffer of pH 4.0 to prepare a 0.75 AU/mL enzyme solution. As references, a similar operation was conducted using β-glucosidase (manufactured by Fluka) derived from Aspergillus niger, β-glucosidase (manufactured by Sigma) derived from almond, β-xylosidase derived from pectinase G (manufactured by Amano Enzyme Inc.). Each of purified products of isoflavone glycosides (glycitin, acetylglycitin, malonylglycitin, daidzin, acetyldaidzin, malonyldaidzin, genistin, acetylgenistin, malonylgenistin, all manufactured by Nacalai Tesque, Inc.) was dissolved in methanol to prepare each 2 mM substrate solution. The reaction was carried out by mixing 10 μL of a substrate solution, 200 μL of 20 mM acetate buffer (pH 4.0), and 40 μL of each purified enzyme solution at a total liquid volume of 250 μL. The reaction was carried out at 55° C. and isolation of an aglycon isoflavone from an isoflavone glycoside in the reaction mixture was detected by HLPC at 0, 1, 3, and 6 hours of the reaction.
(§2) To the reaction mixture was added 700 μL of ethanol, followed by stirring and ultrasonication. After centrifugation at 15,000 rpm and 4° C. for 10 minutes, the supernatant was filtered through a filter and then the filtrate was applied to HPLC.
(§3) The isoflavone glycoside and aglycon isoflavone contained in the filtrate was separated and detected by a high performance liquid chromatography (HPLC, Shimadzu CLASS LC-10 system) using TOSOH TSK gel ODS-80TM column (manufactured by Tosoh Corporation). […] The absorbance at 260 nm was detected by a UV detector (Shimadzu, SPD-10AV). Using purified products (manufactured by Nacalai Tesque, Inc.) of the above isoflavone glycosides and aglycon isoflavones, the isoflavone glycoside and aglycon isoflavone were quantitatively determined according to a calibration curve method. By the way, unless otherwise stated, the measuring conditions of HPLC herein mean those described in the example.

[2] = test system: β-Glucosidase derived from A. niger; assay: as above; type: biochemical, Aspergillus niger; parameters: glucoside / aglycon: unit not given here; conditions: 55 °C, pH 4.0
Experimental: as §1, §2, §3

[3] = test system: Crude diglycosidase; assay: Examination of substrate concentration in the conversion into isoflavone aglycons by diglycosidase using soybean materials; type: biochemical, Penicillium multicolor IAM7153;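 on Decomposition efficiency: ratio of each glycoside/aglycon within its isoflavone family: percent of the isoflavone family total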
Outline: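 Reaction at 55° C, shaken, pH 4.0 (20 mM acetate), using crude diglycosidase from a 1.88 AU/mL enzyme solution on soy flour, soymilk, defatted soybean or soy protein concentrate at 2, 5, 10, 20 or 30% (w/v). Isoflavone aglycons quantified by HPLC of ethanol extracts at 0, 1, 3, 6 h.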

Structure (SMILES): CC(=O)OC[C@H]1O[C@@H](Oc2cc(O)c3c(=O)c(-c4ccc(O)cc4)coc3c2)[C@H](O)[C@@H](O)[C@@H]1O [acetylgenistin, 6″-O-acetylgenistin]
- aglycon ([1]; Reaction time 0 h): 0
- glucoside ([1]; Reaction time 0 h): 100
- aglycon ([1]; Reaction time 1 h): 99.8
- glucoside ([1]; Reaction time 1 h): 0.2
- aglycon ([1]; Reaction time 3 h): 99.9
- glucoside ([1]; Reaction time 3 h): 0.1
- aglycon ([1]; Reaction time 6 h): 99.8
- glucoside ([1]; Reaction time 6 h): 0.2
- aglycon ([2]; Reaction time 0 h): 0
- glucoside ([2]; Reaction time 0 h): 100
- aglycon ([2]; Reaction time 1 h): 1.4
- glucoside ([2]; Reaction time 1 h): 98.6
- aglycon ([2]; Reaction time 3 h): 3.3
- glucoside ([2]; Reaction time 3 h): 96.7
- aglycon ([2]; Reaction time 6 h): 6.2
- glucoside ([2]; Reaction time 6 h): 93.8
- Decomposition efficiency: ratio of each glycoside/aglycon within its isoflavone family ([3]; concentrated soybean protein, substrate concentration 2%, heat treatment of enzyme no, reaction time 0 h): 42.9%
- Decomposition efficiency: ratio of each glycoside/aglycon within its isoflavone family ([3]; concentrated soybean protein, substrate concentration 2%, heat treatment of enzyme no, reaction time 1 h): 20.0%
- Decomposition efficiency: ratio of each glycoside/aglycon within its isoflavone family ([3]; concentrated soybean protein, substrate concentration 2%, heat treatment of enzyme no, reaction time 3 h): 8.3%
- Decomposition efficiency: ratio of each glycoside/aglycon within its isoflavone family ([3]; concentrated soybean protein, substrate concentration 2%, heat treatment of enzyme no, reaction time 6 h): 3.3%
- Decomposition efficiency: ratio of each glycoside/aglycon within its isoflavone family ([3]; concentrated soybean protein, substrate concentration 2%, heat treatment of enzyme yes, reaction time 6 h): 41.3%
- Decomposition efficiency: ratio of each glycoside/aglycon within its isoflavone family ([3]; concentrated soybean protein, substrate concentration 5%, heat treatment of enzyme no, reaction time 0 h): 43.1%
- Decomposition efficiency: ratio of each glycoside/aglycon within its isoflavone family ([3]; concentrated soybean protein, substrate concentration 5%, heat treatment of enzyme no, reaction time 1 h): 36.4%
- Decomposition efficiency: ratio of each glycoside/aglycon within its isoflavone family ([3]; concentrated soybean protein, substrate concentration 5%, heat treatment of enzyme no, reaction time 3 h): 26.3%
- Decomposition efficiency: ratio of each glycoside/aglycon within its isoflavone family ([3]; concentrated soybean protein, substrate concentration 5%, heat treatment of enzyme no, reaction time 6 h): 17.8%
- Decomposition efficiency: ratio of each glycoside/aglycon within its isoflavone family ([3]; concentrated soybean protein, substrate concentration 5%, heat treatment of enzyme yes, reaction time 6 h): 41.7%
- Decomposition efficiency: ratio of each glycoside/aglycon within its isoflavone family ([3]; concentrated soybean protein, substrate concentration 10%, heat treatment of enzyme no, reaction time 0 h): 43.4%
- Decomposition efficiency: ratio of each glycoside/aglycon within its isoflavone family ([3]; concentrated soybean protein, substrate concentration 10%, heat treatment of enzyme no, reaction time 1 h): 42.8%
- Decomposition efficiency: ratio of each glycoside/aglycon within its isoflavone family ([3]; concentrated soybean protein, substrate concentration 10%, heat treatment of enzyme no, reaction time 3 h): 37.3%
- Decomposition efficiency: ratio of each glycoside/aglycon within its isoflavone family ([3]; concentrated soybean protein, substrate concentration 10%, heat treatment of enzyme no, reaction time 6 h): 33.2%
- Decomposition efficiency: ratio of each glycoside/aglycon within its isoflavone family ([3]; concentrated soybean protein, substrate concentration 10%, heat treatment of enzyme yes, reaction time 6 h): 42.8%
- Decomposition efficiency: ratio of each glycoside/aglycon within its isoflavone family ([3]; concentrated soybean protein, substrate concentration 20%, heat treatment of enzyme no, reaction time 0 h): 43.7%
- Decomposition efficiency: ratio of each glycoside/aglycon within its isoflavone family ([3]; concentrated soybean protein, substrate concentration 20%, heat treatment of enzyme no, reaction time 1 h): 47.0%
- Decomposition efficiency: ratio of each glycoside/aglycon within its isoflavone family ([3]; concentrated soybean protein, substrate concentration 20%, heat treatment of enzyme no, reaction time 3 h): 44.6%
- Decomposition efficiency: ratio of each glycoside/aglycon within its isoflavone family ([3]; concentrated soybean protein, substrate concentration 20%, heat treatment of enzyme no, reaction time 6 h): 42.3%
- Decomposition efficiency: ratio of each glycoside/aglycon within its isoflavone family ([3]; concentrated soybean protein, substrate concentration 20%, heat treatment of enzyme yes, reaction time 6 h): 43.2%
- Decomposition efficiency: ratio of each glycoside/aglycon within its isoflavone family ([3]; concentrated soybean protein, substrate concentration 30%, heat treatment of enzyme no, reaction time 0 h): 43.5%
- Decomposition efficiency: ratio of each glycoside/aglycon within its isoflavone family ([3]; concentrated soybean protein, substrate concentration 30%, heat treatment of enzyme no, reaction time 1 h): 65.3%
- Decomposition efficiency: ratio of each glycoside/aglycon within its isoflavone family ([3]; concentrated soybean protein, substrate concentration 30%, heat treatment of enzyme no, reaction time 3 h): 61.0%
- Decomposition efficiency: ratio of each glycoside/aglycon within its isoflavone family ([3]; concentrated soybean protein, substrate concentration 30%, heat treatment of enzyme no, reaction time 6 h): 55.9%
- Decomposition efficiency: ratio of each glycoside/aglycon within its isoflavone family ([3]; concentrated soybean protein, substrate concentration 30%, heat treatment of enzyme yes, reaction time 6 h): 42.4%
- Decomposition efficiency: ratio of each glycoside/aglycon within its isoflavone family ([3]; roasted soy flour, substrate concentration 2%, heat treatment of enzyme no, reaction time 0 h): 44.7%
- Decomposition efficiency: ratio of each glycoside/aglycon within its isoflavone family ([3]; roasted soy flour, substrate concentration 2%, heat treatment of enzyme no, reaction time 1 h): 10.6%
- Decomposition efficiency: ratio of each glycoside/aglycon within its isoflavone family ([3]; roasted soy flour, substrate concentration 2%, heat treatment of enzyme no, reaction time 3 h): 5.0%
- Decomposition efficiency: ratio of each glycoside/aglycon within its isoflavone family ([3]; roasted soy flour, substrate concentration 2%, heat treatment of enzyme no, reaction time 6 h): 1.5%
- Decomposition efficiency: ratio of each glycoside/aglycon within its isoflavone family ([3]; roasted soy flour, substrate concentration 2%, heat treatment of enzyme yes, reaction time 6 h): 45.0%
- Decomposition efficiency: ratio of each glycoside/aglycon within its isoflavone family ([3]; roasted soy flour, substrate concentration 5%, heat treatment of enzyme no, reaction time 0 h): 44.7%
- Decomposition efficiency: ratio of each glycoside/aglycon within its isoflavone family ([3]; roasted soy flour, substrate concentration 5%, heat treatment of enzyme no, reaction time 1 h): 22.1%
- Decomposition efficiency: ratio of each glycoside/aglycon within its isoflavone family ([3]; roasted soy flour, substrate concentration 5%, heat treatment of enzyme no, reaction time 3 h): 15.2%
- Decomposition efficiency: ratio of each glycoside/aglycon within its isoflavone family ([3]; roasted soy flour, substrate concentration 5%, heat treatment of enzyme no, reaction time 6 h): 9.2%
- Decomposition efficiency: ratio of each glycoside/aglycon within its isoflavone family ([3]; roasted soy flour, substrate concentration 5%, heat treatment of enzyme yes, reaction time 6 h): 44.7%
- Decomposition efficiency: ratio of each glycoside/aglycon within its isoflavone family ([3]; roasted soy flour, substrate concentration 10%, heat treatment of enzyme no, reaction time 0 h): 38.2%
- Decomposition efficiency: ratio of each glycoside/aglycon within its isoflavone family ([3]; roasted soy flour, substrate concentration 10%, heat treatment of enzyme no, reaction time 1 h): 33.3%
- Decomposition efficiency: ratio of each glycoside/aglycon within its isoflavone family ([3]; roasted soy flour, substrate concentration 10%, heat treatment of enzyme no, reaction time 3 h): 25.3%
- Decomposition efficiency: ratio of each glycoside/aglycon within its isoflavone family ([3]; roasted soy flour, substrate concentration 10%, heat treatment of enzyme no, reaction time 6 h): 18.7%
- Decomposition efficiency: ratio of each glycoside/aglycon within its isoflavone family ([3]; roasted soy flour, substrate concentration 10%, heat treatment of enzyme yes, reaction time 6 h): 45.9%
- Decomposition efficiency: ratio of each glycoside/aglycon within its isoflavone family ([3]; roasted soy flour, substrate concentration 20%, heat treatment of enzyme no, reaction time 0 h): 46.1%
- Decomposition efficiency: ratio of each glycoside/aglycon within its isoflavone family ([3]; roasted soy flour, substrate concentration 20%, heat treatment of enzyme no, reaction time 1 h): 44.1%
- Decomposition efficiency: ratio of each glycoside/aglycon within its isoflavone family ([3]; roasted soy flour, substrate concentration 20%, heat treatment of enzyme no, reaction time 3 h): 35.8%
- Decomposition efficiency: ratio of each glycoside/aglycon within its isoflavone family ([3]; roasted soy flour, substrate concentration 20%, heat treatment of enzyme no, reaction time 6 h): 28.6%
- Decomposition efficiency: ratio of each glycoside/aglycon within its isoflavone family ([3]; roasted soy flour, substrate concentration 20%, heat treatment of enzyme yes, reaction time 6 h): 46.2%
- Decomposition efficiency: ratio of each glycoside/aglycon within its isoflavone family ([3]; roasted soy flour, substrate concentration 30%, heat treatment of enzyme no, reaction time 0 h): 46.7%
- Decomposition efficiency: ratio of each glycoside/aglycon within its isoflavone family ([3]; roasted soy flour, substrate concentration 30%, heat treatment of enzyme no, reaction time 1 h): 46.6%
- Decomposition efficiency: ratio of each glycoside/aglycon within its isoflavone family ([3]; roasted soy flour, substrate concentration 30%, heat treatment of enzyme no, reaction time 3 h): 41.4%
- Decomposition efficiency: ratio of each glycoside/aglycon within its isoflavone family ([3]; roasted soy flour, substrate concentration 30%, heat treatment of enzyme no, reaction time 6 h): 37.8%
- Decomposition efficiency: ratio of each glycoside/aglycon within its isoflavone family ([3]; roasted soy flour, substrate concentration 30%, heat treatment of enzyme yes, reaction time 6 h): 46.1%
- Decomposition efficiency of genistin family in defatted soybean ([3]; substrate concentration 2%, heat treatment of enzyme no, reaction time 0 h): 1.8
- Decomposition efficiency of genistin family in defatted soybean ([3]; substrate concentration 2%, heat treatment of enzyme no, reaction time 1 h): not detected
- Decomposition efficiency of genistin family in defatted soybean ([3]; substrate concentration 2%, heat treatment of enzyme no, reaction time 3 h): not detected
- Decomposition efficiency of genistin family in defatted soybean ([3]; substrate concentration 2%, heat treatment of enzyme no, reaction time 6 h): not detected
- Decomposition efficiency of genistin family in defatted soybean ([3]; substrate concentration 2%, heat treatment of enzyme yes, reaction time 6 h): 1.5
- Decomposition efficiency of genistin family in defatted soybean ([3]; substrate concentration 5%, heat treatment of enzyme no, reaction time 0 h): 1.9
- Decomposition efficiency of genistin family in defatted soybean ([3]; substrate concentration 5%, heat treatment of enzyme no, reaction time 1 h): 0.8
- Decomposition efficiency of genistin family in defatted soybean ([3]; substrate concentration 5%, heat treatment of enzyme no, reaction time 3 h): 0.5
- Decomposition efficiency of genistin family in defatted soybean ([3]; substrate concentration 5%, heat treatment of enzyme no, reaction time 6 h): 0.3
- Decomposition efficiency of genistin family in defatted soybean ([3]; substrate concentration 5%, heat treatment of enzyme yes, reaction time 6 h): 1.8
- Decomposition efficiency of genistin family in defatted soybean ([3]; substrate concentration 10%, heat treatment of enzyme no, reaction time 0 h): 1.9
- Decomposition efficiency of genistin family in defatted soybean ([3]; substrate concentration 10%, heat treatment of enzyme no, reaction time 1 h): 1.3
- Decomposition efficiency of genistin family in defatted soybean ([3]; substrate concentration 10%, heat treatment of enzyme no, reaction time 3 h): 0.9
- Decomposition efficiency of genistin family in defatted soybean ([3]; substrate concentration 10%, heat treatment of enzyme no, reaction time 6 h): 0.6
- Decomposition efficiency of genistin family in defatted soybean ([3]; substrate concentration 10%, heat treatment of enzyme yes, reaction time 6 h): 1.7
